Molecular target: T1, Androgen Receptor (AR) (Homo sapiens, UniProt P10275)
T1 construct: endogenous in cells; host or cells: VCaP
T1 sequence (P10275 1-920): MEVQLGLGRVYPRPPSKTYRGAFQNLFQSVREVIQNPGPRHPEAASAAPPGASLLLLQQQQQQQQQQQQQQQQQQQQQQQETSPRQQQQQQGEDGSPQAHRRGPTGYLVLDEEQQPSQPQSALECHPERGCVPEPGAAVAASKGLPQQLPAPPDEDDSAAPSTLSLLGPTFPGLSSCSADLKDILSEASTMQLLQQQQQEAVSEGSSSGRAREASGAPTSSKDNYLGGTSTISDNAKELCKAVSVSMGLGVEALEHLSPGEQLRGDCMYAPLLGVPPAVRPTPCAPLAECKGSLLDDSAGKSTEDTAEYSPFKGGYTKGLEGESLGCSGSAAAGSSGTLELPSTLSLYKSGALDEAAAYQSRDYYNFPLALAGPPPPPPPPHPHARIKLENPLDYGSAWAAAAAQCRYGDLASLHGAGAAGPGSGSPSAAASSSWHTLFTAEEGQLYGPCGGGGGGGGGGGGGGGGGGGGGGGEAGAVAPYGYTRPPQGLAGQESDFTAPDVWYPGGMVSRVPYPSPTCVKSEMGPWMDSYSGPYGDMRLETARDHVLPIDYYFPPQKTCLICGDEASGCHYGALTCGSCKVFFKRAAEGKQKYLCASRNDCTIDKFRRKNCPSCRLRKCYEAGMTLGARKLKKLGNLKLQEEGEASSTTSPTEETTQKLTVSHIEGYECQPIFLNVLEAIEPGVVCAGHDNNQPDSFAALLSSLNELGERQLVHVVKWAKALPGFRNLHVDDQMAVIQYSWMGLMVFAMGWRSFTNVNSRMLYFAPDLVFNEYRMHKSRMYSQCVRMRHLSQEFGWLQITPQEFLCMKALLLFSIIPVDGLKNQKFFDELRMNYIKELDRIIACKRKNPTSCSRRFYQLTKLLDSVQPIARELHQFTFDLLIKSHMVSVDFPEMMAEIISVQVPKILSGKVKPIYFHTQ
Assay: AR immunofluorescence staining, high content imager, VCaP cells
Format: cell-based
Settings: for DC50: AR degradation by immunofluorescence; for Dmax: maximal AR degradation
Procedure: AR Immunofluorescence Staining of Cells for the High Content Imager was performed as follows: Following treatment of the cells with compound (using the central 60 wells of a 96-well plate), media was removed by aspiration, followed by addition of 50 μL per well of 4% paraformaldehyde (PFA) in PBS supplemented with 2 mM MgCl2 and 2 mM CaCl2. Fixed cells were incubated at RT for 15 minutes. For particularly low adherence cell lines (e.g., VCaP), a 2× solution of 8% PFA was added directly to wells instead. Cells were washed once with 200 μL PBS/well. To permeabilize cells 50 μL/well of 0.1% Triton X-100 in PBS was added and incubated for 5 minutes. Cells were washed once with 200 μL PBSS/well. 100 μL/well of Licor Odyssey Blocking Buffer was added for 1 hour at 20° C. Wells were aspirated and AR antibody (1:1000 in Licor Odyssey blocking buffer; 50 μL/well; CST 5153s) was added. Plates were incubated overnight at 4° C. Plates were washed 3 times with 200 EL PBS/well. The appropriate secondary antibody was added (50 μL/well; diluted in Licor Odyssey blocking buffer) and incubated for 1 hour at RT in the dark as prepared below using Anti-rabbit FITC (1:5000; […]) and Phalloidin-Alexafluor 648 (1:500; […]). Cells were washed once with 200 μL PBS/well. 50 μL DAPI or Hoechst 33342 diluted 1:1000 in Licor Odyssey blocking buffer was added to the wells. Cells were washed 3 times with 200 μL PBS/well. The plates were covered with a clear plastic sealer and refrigerated in the dark until ready to analyze. The cells were analyzed using a Molecular Devices IXM high content imager and analyzed using Molecular Devices metaXpress software suite.

Row | SMILES | DC50 | Dmax
1 | Cc1cc(O[C@H]2C(C)(C)[C@H](NC(=O)c3ccc(N4CCC(CN5CCN(c6cnc(C(=O)N[C@H]7CCC(=O)NC7=O)cn6)CC5)CC4)cc3)C2(C)C)cc(C)c1C#N [Compound 33, 5-[4-[[1-[4-[[3-(4-cyano-3,5-dimethyl-phenoxy)-2,2,4,4-tetramethyl-cyclobutyl]carbamoyl]phenyl]-4-piperidyl]methyl]piperazin-1-yl]-N-[(3S)-2,6-dioxo-3-piperidyl]pyrazine-2-carboxamide] | < 1 nM | ≥ 70%
2 | COc1cc(O[C@H]2C(C)(C)[C@H](NC(=O)c3ccc(N4CCC5(CC4)CN([C@H]4C[C@H](Oc6ccc(C(=O)N[C@H]7CCC(=O)NC7=O)c(OC)c6)C4)CCO5)cc3)C2(C)C)ccc1C#N [Compound 34, 4-[3-[9-[4-[[3-(4-cyano-3-methoxy-phenoxy)-2,2,4,4-tetramethyl-cyclobutyl]carbamoyl]phenyl]-1-oxa-4,9-diazaspiro[5.5]undecan-4-yl]cyclobutoxy]-N-[(3S)-2,6-dioxo-3-piperidyl]-2-methoxy-benzamide] | < 1 nM | ≥ 70%
3 | COc1cc(O[C@H]2C[C@H](N3CCOC4(CCN(c5ccc(C(=O)N[C@H]6C(C)(C)[C@H](Oc7cc(C)c(C#N)c(C)c7)C6(C)C)cc5)CC4)C3)C2)ccc1C(=O)N[C@H]1CCC(=O)NC1=O [Compound 35, 4-[3-[9-[4-[[3-(4-cyano-3,5-dimethyl-phenoxy)-2,2,4,4-tetramethyl-cyclobutyl]carbamoyl]phenyl]-1-oxa-4,9-diazaspiro[5.5]undecan-4-yl]cyclobutoxy]-N-[(3S)-2,6-dioxo-3-piperidyl]-2-methoxy-benzamide] | < 1 nM | ≥ 70%
4 | CC1(C)[C@H](NC(=O)c2ccc(C#CC3CCN(C4CCN(c5ccc(C(=O)N[C@H]6CCC(=O)NC6=O)c(F)c5)CC4)CC3)cc2)C(C)(C)[C@H]1Oc1ccc(C#N)c(Cl)c1 [Compound 36, N-[(3S)-2,6-dioxopiperidin-3-yl]-2-fluoro-4-{4-[2-(4-{[(1r,3r)-3-(3-chloro-4-cyanophenoxy)-2,2,4,4-tetramethylcyclobutyl]carbamoyl}phenyl)ethynyl]-[1,4′-bipiperidin]-1′-yl}benzamide] | < 1 nM | ≥ 70%
5 | COc1cc(O[C@H]2C(C)(C)[C@H](NC(=O)c3ccc(N4CCC(CN5CCN(c6cnc(C(=O)N[C@H]7CCC(=O)NC7=O)nc6)CC5)CC4)cc3)C2(C)C)ccc1C#N [Compound 39, 5-(4-((1-(4-(((1r,3r)-3-(4-cyano-3-methoxyphenoxy)-2,2,4,4-tetramethylcyclobutyl)carbamoyl)phenyl)piperidin-4-yl)methyl)piperazin-1-yl)-N—((S)-2,6-dioxopiperidin-3-yl)pyrimidine-2-carboxamide] | < 1 nM | ≥ 70%
6 | COc1cc(O[C@H]2C(C)(C)[C@H](NC(=O)c3ccc(N4CCC(CN5CCN(c6ccc(C(=O)N[C@H]7CCC(=O)NC7=O)nc6)CC5)CC4)cc3)C2(C)C)ccc1C#N [Compound 40, 5-[4-[[1-[4-[[3-(4-cyano-3-methoxy-phenoxy)-2,2,4,4-tetramethyl-cyclobutyl]carbamoyl]phenyl]-4-piperidyl]methyl]piperazin-1-yl]-N-[(3S)-2,6-dioxo-3-piperidyl]pyridine-2-carboxamide] | < 1 nM | ≥ 70%
7 | Cc1cc(O[C@H]2C(C)(C)[C@H](NC(=O)c3ccc(N4CCC(CN5CCN(c6ccc(C(=O)N[C@H]7CCC(=O)NC7=O)nc6)CC5)CC4)cc3)C2(C)C)cc(C)c1C#N [Compound 41, 5-[4-[[1-[4-[[3-(4-cyano-3,5-dimethyl-phenoxy)-2,2,4,4-tetramethyl-cyclobutyl]carbamoyl]phenyl]-4-piperidyl]methyl]piperazin-1-yl]-N-[(3S)-2,6-dioxo-3-piperidyl]pyridine-2-carboxamide] | < 1 nM | ≥ 70%
8 | COc1cc(O[C@H]2C(C)(C)[C@H](NC(=O)c3ccc(N4CCC(CN5CCN(c6ccc(C(=O)N[C@H]7CCC(=O)NC7=O)cn6)CC5)CC4)cc3)C2(C)C)ccc1C#N [Compound 42, N-[(3S)-2,6-dioxopiperidin-3-yl]-6-(4-{[1-(4-{[(1r,3r)-3-(4-cyano-3-methoxyphenoxy)-2,2,4,4-tetramethylcyclobutyl]carbamoyl}phenyl)piperidin-4-yl]methyl}piperazin-1-yl)pyridine-3-carboxamide] | < 1 nM | ≥ 70%

Continued, values first:

Row | DC50 | Dmax | SMILES
9 | < 1 nM | ≥ 70% | N#Cc1ccc(O[C@H]2CC[C@H](NC(=O)c3ccc(N4CCC(CN5CCN(c6ccc(C(=O)NC7CCC(=O)NC7=O)nn6)CC5)CC4)nn3)CC2)cc1Cl (stereo partly shown) [Compound 28, N-[4-(3-chloro-4-cyano-phenoxy)cyclohexyl]-6-[4-[[4-[6-[(2,6-dioxo-3-piperidyl)carbamoyl]pyridazin-3-yl]piperazin-1-yl]methyl]-1-piperidyl]pyridazine-3-carboxamide]
10 | < 1 nM | < 50% | N#Cc1ccc(O[C@H]2CC[C@H](NC(=O)c3ccc(N4CCC(CN5CCN(c6cccc(C(=O)NC7CCC(=O)NC7=O)c6)CC5)CC4)nn3)CC2)cc1Cl (stereo partly drawn) [Compound 29, N-((1R,4R)-4-(3-chloro-4-cyanophenoxy)cyclohexyl)-6-(4-((4-(3-((2,6-dioxopiperidin-3-yl)carbamoyl)phenyl)piperazin-1-yl)methyl)piperidin-1-yl)pyridazine-3-carboxamide]
11 | < 1 nM | ≥ 70% | N#Cc1ccc(O[C@H]2CC[C@H](NC(=O)c3ccc(N4CCC(CN5CCN(c6ccc(C(=O)NC7CCC(=O)NC7=O)cn6)CC5)CC4)nn3)CC2)cc1Cl (stereo partly drawn) [Compound 30, N-((1R,4R)-4-(3-chloro-4-cyanophenoxy)cyclohexyl)-6-(4-((4-(5-((2,6-dioxopiperidin-3-yl)carbamoyl)pyridin-2-yl)piperazin-1-yl)methyl)piperidin-1-yl)pyridazine-3-carboxamide]
12 | < 1 nM | 50 to 70% | CN(C(=O)c1ccc(N2CCN(CC3CCN(c4ccc(C(=O)N[C@H]5CC[C@H](Oc6ccc(C#N)c(Cl)c6)CC5)nn4)CC3)CC2)cc1F)C1CCC(=O)NC1=O (stereo partly drawn) [Compound 31, N-((1R,4R)-4-(3-chloro-4-cyanophenoxy)cyclohexyl)-6-(4-((4-(4-((2,6-dioxopiperidin-3-yl)(methyl)carbamoyl)-3-fluorophenyl)piperazin-1-yl)methyl)piperidin-1-yl)pyridazine-3-carboxamide]
13 | ≥ 100 nM | < 50% | CCN(C(=O)c1ccc(N2CCN(CC3CCN(c4ccc(C(=O)N[C@H]5CC[C@H](Oc6ccc(C#N)c(Cl)c6)CC5)nn4)CC3)CC2)cc1)C1CCC(=O)NC1=O (stereo partly drawn) [Compound 32, N-((1R,4R)-4-(3-chloro-4-cyanophenoxy)cyclohexyl)-6-(4-((4-(4-((2,6-dioxopiperidin-3-yl)(ethyl)carbamoyl)phenyl)piperazin-1-yl)methyl)piperidin-1-yl)pyridazine-3-carboxamide]
14 | < 1 nM | ≥ 70% | COc1cc(O[C@H]2C(C)(C)[C@H](NC(=O)c3ccc(N4CCC(CN5CCN(c6cnc(C(=O)N[C@H]7CCC(=O)NC7=O)cn6)CC5)CC4)cc3)C2(C)C)ccc1C#N [Compound 37, 5-[4-[[1-[4-[[3-(4-cyano-3-methoxy-phenoxy)-2,2,4,4-tetramethyl-cyclobutyl]carbamoyl]phenyl]-4-piperidyl]methyl]piperazin-1-yl]-N-[(3S)-2,6-dioxo-3-piperidyl]pyrazine-2-carboxamide]

From patent US12427144B2, “Compounds and methods for the targeted degradation of androgen receptor” (Arvinas Operations, Inc., priority 2019, dated 2025)
